Measurements taken from article PMC3687523 (Biochemical pharmacology, 2013).

How the values were obtained:
rat brain CYP2D [1] = conditions: 20 μg i.c.v. propranolol
rat brain CYP2D [2] = test system: rat brain CYP2D
[3] = 30 min after 30 mg/kg s.c. codeine
[4] = 20 μg i.c.v. propranolol, 30 mg/kg s.c. codeine

Q: With `CC(C)NCC(O)COc1cccc2ccccc12` (centres unmarked) [propranolol] as the compound, how does the “brain morphine concentration, compared to vehicle-pretreated rats” value (rat brain CYP2D [1]; [3]) read?
A: significantly lower

Q: And the “plasma morphine concentration, compared to vehicle-pretreated rats” value (rat brain CYP2D [1]; [3])?
A: equal

Q: And the “brain morphine concentrations, propranolol- vs vehicle-pretreated rats” value (rat brain CYP2D [1]; at both 60 and 90 min after 30 mg/kg s.c. codeine)?
A: no significant difference

Q: And the “percentage of maximal analgesic effect (%MPE) after codeine, compared to vehicle pretreatment” value (rat brain CYP2D [2]; 20 μg i.c.v. propranolol 24 h before 30 mg/kg s.c. codeine, at 15, 20, 30 and 40 min)?
A: significantly lower

Q: And the “area under the analgesia-time curve (AUC) 0-30 min after codeine, compared to vehicle pretreatment” value (rat brain CYP2D [2]; [4])?
A: significantly lower

Q: And the “area under the analgesia-time curve (AUC) 60-120 min after codeine, compared to vehicle pretreatment” value (rat brain CYP2D [2]; [4])?
A: Neither inhibitor resulted in lower AUC

Q: And the “AUC of analgesia after morphine, compared to vehicle pretreatment” value (rat brain CYP2D [2]; 40 μg i.c.v. propranolol, 5 mg/kg s.c. morphine, all time periods)?
A: did not result in significantly different

Q: And the “%MPE after morphine, compared to vehicle pretreatment” value (rat brain CYP2D [2]; 40 μg i.c.v. propranolol, 5 mg/kg s.c. morphine, all time points)?
A: did not result in significantly different %MPE
